Assay results: patent publication US20250345318A1, “COMPOUND AND USE THEREOF IN PREVENTING OR TREATING RADIATION DAMAGE” (SIMCERE PHARMACEUTICAL CO., LTD., priority 2022, published 2025)

How the values were obtained:
[1] = system: BEAS-2B cells; assay: ROS, SOD, CAT and MDA assays, BEAS-2B (Example 22); assay type: cell-based, human
Excerpt: The large amount of reactive oxygen species (ROS) induced by X-ray and the sustained oxidative stress reaction may cause DNA damage. Superoxide dismutase (SOD) and catalase (CAT) exert antioxidant effects, and the lipid oxidation product malondialdehyde (MDA) and ROS can reflect the oxidative stress level in vivo. The intracellular ROS level was detected using the fluorescent probe DCFH-DA. […] The supernatant of BEAS-2B cells was extracted and subjected to an MDA assay and an activity assay for CAT and SOD.

[2] = system: SPCA-1 cells; assay: CCK-8 cell viability, JAC4 with X-ray, SPCA-1 (Example 22); assay type: cell-based, human; conditions: 10 μM JAC4 24 h + 4 Gy X-ray 24 h
Method: SPCA-1 and BEAS-2B cells were cultured in a 90%/DMEM+10% FBS+100 μg/mL ciprofloxacin culture medium. The SPCA-1 and BEAS-2B cells were pretreated for 24 h with 10 μM JAC4 and subjected to 4 Gy X-ray treatment for 24 h and then CCK-8 detection, so as to explore the influence of JAC4 in combination with X-ray on the viability of SPCA-1 and BEAS-2B cells. The specific procedures are as follows:
1. SPCA-1 and BEAS-2B cells in the exponential growth phase were plated in a 96-well plate at 5,000 cells/well in triplicate for each group.
2. After 24 h of culture, when the cells fully adhered to the container wall and returned to normal morphology, the cells were treated with X-ray radiation of 0, 4, 8, 12, 16, or 20 Gy or JAC4 at 0, 1, 5, 10, 20, or 50 μM.
3. After 24 h of treatment, CCK-8 reagent was added at 10 μL/well, and the cells were incubated in a cell incubator for 1 h. The absorbance (OD) at 450 nm was measured.
4. Cell viability equation: cell viability (%)=[…]×100%/(ODcontrol−ODblank).

[3] = system: BEAS-2B cells; assay: Apoptosis (Hoechst 33342) and mitochondrial membrane potential (JC-1), BEAS-2B (Example 22); assay type: cell-based, human
Method: Severe DSBs may cause apoptosis. SPCA-1 and BEAS-2B cells were plated and cultured for 24 h before they were treated with 10 μM JAC4 for 24 h and 4 Gy X-ray for 24 h. The cells were stained with Hoechst 33342 (see Hoechst staining for apoptosis detection in Example 13) to evaluate the effect of JAC4 in combination with radiation on apoptosis. […] The decrease in mitochondrial membrane potential (JC-1) is a marker event in the early stage of apoptosis. The mitochondrial membrane potential was measured using fluorescent probe JC-1. The red fluorescence indicates a high mitochondrial membrane potential leading to JC-1 aggregate formation, and the green fluorescence indicates the mitochondrial membrane potential depolarization. The fluorescence ratio of red to green reflects the mitochondrial membrane potential and the number of early apoptotic cells.

[4] = system: BEAS-2B cells transfected with JWA-knockdown plasmids; assay: Colony formation of BEAS-2B cells transfected with JWA-knockdown plasmids (Example 22); assay type: cell-based, human; conditions: JAC4-treated JWA-knockdown BEAS-2B vs JAC4-treated si-Control
Method: 1. SPCA-1 and BEAS-2B cells (or SPCA-1 and BEAS-2B cells transfected with JWA-knockdown plasmids) in the exponential growth phase were plated in 6-well plates at a specific amount. The number of plated cells is as follows
2. After the cells adhered to the container wall, the cells were treated (or not treated) with […] JAC4 and treated with X-ray of 0, 2, 4, or 6 Gy. The medium was replaced with a fresh medium containing JAC4 at the corresponding concentration once every 2 days (or the cells were treated with X-ray of 0, 2, 4, or 6 Gy after adhesion, and the medium was replaced with a fresh medium once every 2 days).
3. After the cells were cultured for 10-14 days, colonies were visually observed. The culture medium was discarded, and the cells were fixed with methanol for 10-20 min, stained with crystal violet for 10 min, slowly washed with flowing clear water thrice, photographed, and counted for colonies containing>50 cells.
4. The colony forming efficiency (CFE)=(number of colonies formed/number of seeded cells) 100% was calculated, and the cell survival fraction (SF)=(colony forming efficiency of treatment group/colony forming efficiency of 0 Gy group)×100% was calculated from the colony forming efficiency. […]

[5] = system: SPCA-1 cells; assay: Subcutaneous SPCA-1 lung cancer xenograft model with X-ray radiation therapy (Example 20); assay type: in vivo; conditions: for tumor inhibition rate: day 13, vs control group
Method: SPCA-1 cells in the logarithmic growth phase were subcutaneously injected into male BALB/C nude mice aged 4-5 weeks at 5×10^6 cells/100 μL […]. When the tumor volume reached 60-100 mm^3 (tumor volume=length×width^2/2), the mice were randomized into a vehicle control group, a 100 mg/kg JAC4 group (daily treatment), a 3 Gy×5 X-ray radiation group (5 consecutive days of radiation), and a 100 mg/kg JAC4+3 Gy×5 X-ray radiation group, each containing 6 mice. The formulation of the vehicle for JAC4 was polyethylene glycol:ethanol:physiological saline=40:7.5:52.5, v/v/v. The vehicle group and the treatment groups were given the vehicle or the treatment at the same volume by the same route, respectively. The mice were kept anesthetized by isoflurane through a mask in a supine posture. The irradiation range was adjusted to the tumor and the whole lung with a width of about 2 cm through the width indicating lamp and the beam limiting device of the system. The chamber was closed, and the irradiation time was set to about 126 s according to the dose rate to enable the total dose to reach 3 Gy. The irradiator was turned on for the irradiation. 100 mg/kg JAC4 was administered intragastrically daily. The body weight and tumor volume were measured daily and the modeling was terminated on day 13 post-dose.
After the modeling was finished, the tumor tissue was subjected to HE staining according to the following specific procedures: 3 mice were randomly selected to provide the tumor tissue for HE staining in each group, and 6 fields of view were randomly selected for inspection.

c1ccc(CSc2nnc(C3COc4ccccc4O3)o2)nc1 (stereo not drawn) [JAC4]
CAT activity ([1]; JAC4+X-ray group): 3.56±0.02 U/mg | SOD activity ([1]; JAC4+X-ray group): 24.20±1.18 U/mg | oxidation product MDA level ([1]; JAC4+X-ray group): 31.35 ± 4.34 µM/mg | CAT activity ([1]; JAC4 group): 3.42±0.08 U/mg | SOD activity ([1]; JAC4 group): 28.67±1.36 U/mg | oxidation product MDA level ([1]; JAC4 group): 24.95 ± 1.63 µM/mg | ROS level ([1]; JAC4 in combination with X-ray): significantly reduced | viability of SPCA-1 cells (CCK-8) [2]: significantly inhibited | apoptosis (Hoechst 33342) ([3]; 10 μM JAC4 24 h + 4 Gy X-ray 24 h): decreased the pro-apoptotic effect of X-ray | mitochondrial membrane potential (JC-1) ([3]; JAC4 in combination with X-ray): reversed the X-ray-induced decrease in mitochondrial membrane potential | cell survival rate (radiosensitization curve) [4]: significantly decreased | tumor inhibition rate ([5]; 100 mg/kg JAC4 + 3 Gy×5 X-ray combination therapy): 78.05% | tumor inhibition rate ([5]; 100 mg/kg JAC4 intragastric daily, monotherapy): 25.45% | tumor volume ([5]; 100 mg/kg JAC4 monotherapy): significantly smaller than the control group | tumor-to-body weight ratio ([5]; JAC4 + X-ray combination vs X-ray monotherapy group): significantly reduced | H&E staining of tumor tissues ([5]; JAC4 in combination with X-ray): promotes the necrosis of tumor tissues | death ([5]; all groups, JAC4 100 mg/kg with or without X-ray): no death occurred | body weight ([5]; among all groups, JAC4 100 mg/kg with or without X-ray): no significant changes
